Source: PubChem BioAssay AID1902 (Broad Institute, 2009)
Calls of active or inactive are those of the source.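 Rule for the calls: active = EC50 no more than a set limit of log units above the highest dose; inactive = the rest.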

target: S. pyogenes SKKanGAS, kanamycin survival, BacTiterGlo, 6 h; test: SKKanGAS survival reduction under kanamycin, dose response, streptokinase promoter inhibitor project, SKKanGAS strain, luminescence, dose confirmation (AID 1902);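 note: lower survival reflects blocked streptokinase promoter driving kanamycin resistance gene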

| SMILES | EC50 |
| --- | --- |
| O=C(NC(=S)NNC(=O)c1cccs1)c1ccccc1 | 5.73 µM |
| COc1ccc2nc(C3CCCCC3)nc(C3CCCCC3)c2c1 | 2.66 µM |
| CCn1c(SCC(=O)N2CC(C)OC(C)C2)nc2c([nH]c3ccccc32)c1=O (stereo unspecified) | > 15 µM (inactive) |
| COc1cc(C)c(C(=O)CC(=O)c2c(C)cc(OC)cc2C)c(C)c1 | 1.61 µM |
| Cc1cc(C)c2nc(NNC(=O)c3ccc(S(=O)(=O)N4CCCCC4)cc3)sc2c1 | 1.86 µM |
| FC(F)(F)c1cc(Nc2ccccc2)nc(-c2ccccn2)n1 | 15.2 µM |
| Cc1ccc(N2C(=O)C3CC(c4ccccc4)=C4C5C=CC(C6C(=O)N(c7ccc(C)cc7)C(=O)C56)C4C3C2=O)cc1 (stereo unspecified) | 1.39 µM |
| Cc1onc(-c2ccccc2)c1C(=O)NNC(=S)NC(=O)c1ccc(Br)cc1 | 0.174 µM |
| CC1(C)CN=C(Nc2nc3ccccc3s2)S1 | 6.75 µM |
| c1ccc(-n2c3ccccc3c3ccccc32)cc1 | 4.4 µM |
| CNC(=S)N/N=C/c1cn(Cc2ccc(C)cc2)c2ccccc12 | 5.33 µM |
| O=[N+]([O-])c1cccc(/C=C/c2ccc3cccc(O)c3n2)c1 | 2.25 µM |
| Brc1ccc(C2C3=C(Nc4ncnn42)c2ccccc2OC3c2ccncc2)cc1 (stereo unspecified) | 10.1 µM |
| O=S(=O)(N[C@H]1C[C@@H](NS(=O)(=O)OCC(Cl)(Cl)Cl)C2CCCCC21)OCC(Cl)(Cl)Cl (stereo partly specified) | 1.86 µM |
| COc1ccc(/C=C2/Sc3ccc(C(=O)N4CCc5ccccc5C4)cc3NC2=O)cc1 | 1.65 µM |
| N#C/C(=C(/O)c1cc2ccccc2o1)c1nc2ccccc2s1 | 9.58 µM |
| CCC(CO)Nc1ncnc2c1cnn2-c1ccc(OC)cc1 (stereo unspecified) | > 15 µM (inactive) |
| CCCCCCCN1N=C(C)C(C(=O)c2ccccc2)C1=O (stereo unspecified) | 1.33 µM |
| CCOC(=O)C1=C(C)NC2=C(C(=O)c3ccccc32)C1c1ccc([N+](=O)[O-])o1 (stereo unspecified) | 12.8 µM |
| COc1ccccc1N1CCN(Cc2nc(N)nc(Nc3ccc(C)c(Cl)c3)n2)CC1 | 7.99 µM |
| CCc1c(O)nc(SCC(=O)Nc2nc3ccccc3s2)n(C2CCCCC2)c1=O | 8.89 µM |
| CC(C)[C@H](NC(=O)N1CC(=O)Nc2ccccc21)C(=O)N[C@@H](Cc1ccccc1)C(=O)O | > 15 µM (inactive) |

| SMILES | EC50 |
| --- | --- |
| Cc1ccc(NC(=O)CN(C)Cc2nc3c(Br)cc(Br)cc3c(=O)[nH]2)cc1 | 3.79 µM |
| COc1ccc(C(=O)/C=C/c2ccc(O)cc2)c(O)c1CC=C(C)C | 2.14 µM |
| CCCNC(=O)c1ccc(N2CCC3(CC2)CC(c2ccccc2)=NO3)c(NC(=O)c2ccco2)c1 | 8 µM |
| N=C1/C(=C/c2cccs2)C(=O)N=C2SN=C(SCc3ccccc3)N12 | 1.83 µM |
| COc1ccc(C(=O)NNC(=S)NC(=O)c2ccccc2)cc1 | 0.995 µM |
| N=C1S/C(=C\c2ccc(-c3cccc(Cl)c3)o2)C(=O)N1c1nccs1 | < 0.06 µM |
| CCc1nnc(NS(=O)(=O)c2ccc(NC(=S)NC(=O)/C=C/c3ccc(C(C)C)cc3)cc2)s1 | 3.11 µM |
| O=C(Nc1nc(-c2ccccn2)cs1)C12CC3CC(CC(O)(C3)C1)C2 | 1.44 µM |
| O=C(NC(NC(=S)Nc1ccccc1Cl)C(Cl)(Cl)Cl)c1cccc(Cl)c1 (stereo unspecified) | 1.59 µM |
| O=C(Nc1ccc(OC(F)(F)F)cc1)N1CCN(c2ccnc3cc(Cl)ccc23)CC1 | 9.37 µM |
| Cc1nn(Cc2ccc(Cl)cc2Cl)c(C)c1NC(=O)NC12CC3CC(CC(C3)C1)C2 | 14.2 µM |
| CCc1ccc(C2C(C#N)=C(N)C(C#N)(C#N)C3=CCC(C(C)(C)C)CC32)cc1 (stereo unspecified) | 5.18 µM |
| Cc1ccc(Cc2cnc(N3C(=N)SC(C)C3=O)s2)cc1 (stereo unspecified) | 0.298 µM |
| COC(=O)c1sc(-c2ccc(C(C)(C)C)cc2)cc1NC(=O)CSCC(=O)O | 3.91 µM |
| O=C(Nc1ccccc1N1CCCC1)c1ccc2c(c1)OCO2 | > 15 µM (inactive) |
| Cc1oc(C(C)(C)C)cc1C(=O)N1CCN(C(c2ccccc2)c2ccccc2)CC1 | 2.89 µM |
| CCOC(=O)c1cnc(-n2nc(C)cc2C)nc1NC1CCCCC1 | < 0.06 µM |
| CC1(C)S[C@@H]2[C@H](NC(=O)Cc3ccccc3)C(=O)N2[C@H]1C(=O)O | < 0.06 µM |
| Cc1cc(C)c(OCC(=O)N2CCN(c3ncc(C(F)(F)F)cc3Cl)CC2)c(C)c1 | 6.88 µM |
| CS(=O)(=O)c1ccc([C@@H](O)[C@@H](CO)NC(=O)C(Cl)Cl)cc1 | 0.74 µM |
| Cc1cc(C)c(C2C3=C(Nc4c2c(C)nn4-c2ccccn2)c2ccccc2C3=O)c(C)c1 (stereo unspecified) | 1.45 µM |
| Cc1ccc(NC2=C/C(=N\S(=O)(=O)c3cccs3)c3ccccc3C2=O)c(C)c1 | 1.66 µM |

| SMILES | EC50 |
| --- | --- |
| OC(CN=c1sc2ccccc2n1CC(O)COc1ccccc1)COc1ccccc1 (stereo unspecified) | 6.28 µM |
| Cc1nnc(-c2cccc(Br)c2)c2cn(-c3ccc(Br)cc3)nc12 | 3.07 µM |
| COc1cc(C(=O)NNC(=S)NC(=O)c2ccccc2C)cc(OC)c1OC | 1.88 µM |
| Oc1ccccc1C1CCCCC1c1ccccc1 (stereo unspecified) | 3.9 µM |
| O=C(CN1c2ccccc2Sc2ccccc21)NNC(=S)Nc1ccc(Cl)cc1 | 2.67 µM |
| Oc1c(C(Nc2ccccn2)c2ccccn2)ccc2cccnc12 (stereo unspecified) | 10.7 µM |
| CN(C)c1ccc(O)c2c1CC1CC3[C@@H](N(C)C)C(=O)C(C(N)=O)=C(O)[C@]3(O)C(=O)C1=C2O (stereo partly specified) | 0.095 µM |
| COCC1CCN(C(=O)c2ccc3oc(Cc4ccccc4)nc3c2)C1 (stereo unspecified) | > 15 µM (inactive) |
| COc1ccc(Cl)cc1C(Nc1cccnc1)c1ccc2cccnc2c1O (stereo unspecified) | 6.28 µM |
| O=C(Cc1ccccc1)N/N=C/c1cc(Br)cc(Cl)c1O | 1.52 µM |
| C/C(=N\NC(=O)c1ccc(Cl)cc1)c1ccccn1 | 1.48 µM |
| Nc1[nH]n2c(=O)cc(-c3ccccc3)nc2c1N=Nc1ccc2c(c1)OCO2 | 2.25 µM |
| CC1(C)N=C(N)NC(Nc2ccccc2)=N1 | 3.75 µM |
| CCCCCCCCCCCCn1ccc(=N)cc1 | 4.1 µM |
| Cc1nn(-c2ccccc2)c2c1C(c1ccc(O)c(O)c1)N1C(=N2)C(Nc2ccccc2)=Nc2ccccc21 (stereo unspecified) | 1.36 µM |
| CCOC(=O)C1=NN(C(=O)c2ccc(C)cc2)C(O)(c2ccc(Cl)cc2)C1 (stereo unspecified) | 3.06 µM |
| CCOC(=O)c1csc(N/N=C2\CCCc3ccccc32)n1 | 11 µM |
| Cc1ccc(C(C)C)cc1OCC(=O)Nc1ccccc1N1CCCC1 | 3.56 µM |
| CC(=O)c1sc(N/N=C\c2c(O)ccc3ccccc23)nc1C | 4.08 µM |
| CCCC(=O)Nc1ccc2c(c1)nc(CCNC(=O)c1ccccc1)n2C | > 15 µM (inactive) |
| O=C1Nc2cc(C(=O)N3CCN(c4ccccn4)CC3)ccc2S/C1=C\c1ccccc1 | 3.35 µM |
| O=[N+]([O-])c1cc(Br)c(O)c(/C=N/Nc2nc3ccccc3s2)c1 | 1.23 µM |

| SMILES | EC50 |
| --- | --- |
| Cc1ccn2c(Nc3ccccc3C)c(-c3ccccn3)nc2c1 | 2.19 µM |
| CCCn1c(NC(=O)c2ccccc2)nc2ccccc21 | 1.57 µM |
| C=C1c2cccc(O)c2C(O)=C2C(=O)[C@]3(O)C(O)=C(C(N)=O)C(=O)[C@@H](N(C)C)[C@@H]3[C@@H](O)[C@H]12 | 0.093 µM |
| Cc1cc(C)c2c(n1)sc1c(=O)n(CC(=O)c3ccccc3)cnc12 | 1.55 µM |
| Cc1ccc(S(=O)(=O)NCC(=O)OCC(=O)N2N=C(c3ccc(Cl)cc3)CC2c2ccco2)cc1C (stereo unspecified) | 8.17 µM |
| O=C(/C=C/c1c[nH]c2ccccc12)c1c(O)n(CCc2ccccc2)c(=O)[nH]c1=O | 3.11 µM |
| O=C(Nc1cccc(F)c1)N1CCCCCC1 | > 15 µM (inactive) |
| O=C(N/N=C/c1ccc(-c2ccc(Cl)c(C(=O)O)c2)o1)c1cc2c(ccc3ccccc32)o1 | 4.05 µM |
| Cc1ccc(NC(=O)c2cc(N3C(=O)C=CC3=O)ccc2N2CCOCC2)cc1Cl | 11.5 µM |
| COc1ccc(CCNC(=O)c2ccc(CNS(=O)(=O)c3ccc(C(C)(C)C)cc3)cc2)cc1OC | 7 µM |
| CC(C)(C)c1ccc(CN(Cc2ccco2)Cc2nnnn2C2CCCC2)cc1 | 4.69 µM |
| COc1cnc(-c2ccccn2)nc1Oc1ccccc1Cl | 14.4 µM |
| Cc1ccc(NS(=O)(=O)c2ccc(Cl)c(NC(=S)NC(=O)C3CCCCC3)c2)cc1Cl | 1.13 µM |
| c1ccc(-c2nnc(-c3c[nH]c4ccccc34)nc2-c2ccccc2)cc1 | 7.17 µM |
| COC(=O)c1ccc(Cl)c(NC(=O)CSc2nnc(-c3ccncc3)o2)c1 | > 15 µM (inactive) |
| O=C(NNC1=C(C(=O)C(F)(F)F)CCC1)c1ccc(Br)cc1 | 0.926 µM |
| CC(C)c1c(C(=O)N/N=C/c2cccc(OCc3ccc(F)cc3)c2)nnn1-c1nonc1N | 5.19 µM |
| O=C(Nc1cccc(NC(=O)c2cccnc2)c1)c1ccccc1 | > 15 µM (inactive) |
| Cc1nn(-c2ccccc2)c(C)c1/C=N/Nc1nc2ccccc2[nH]1 | 9.71 µM |
| O=c1cc(N2CCCCC2)c(-c2ccccc2)nn1Cc1ccc(Cl)cc1Cl | 3.04 µM |
| Cc1cccc(C)c1OC(=O)C(c1ccccc1)c1ccccc1 | 3.17 µM |
| CC(C)(C)CC(=O)N1CCC(c2nc3c(nnn3Cc3c(F)cccc3Cl)c(=O)[nH]2)CC1 | 2.8 µM |

| SMILES | EC50 |
| --- | --- |
| O=C(NC(=S)NNC(=O)c1ccccc1O)c1ccco1 | 3.06 µM |
| COc1ccccc1N1CCN(C(=O)/C=C/c2ccc(C)cc2)CC1 | > 15 µM (inactive) |
| Cn1c(=O)[nH]c(=O)c2c1nc(N1CCC(Cc3ccccc3)CC1)n2Cc1ccccc1 | 3.91 µM |
| CCN1CCN(C(CNS(=O)(=O)c2ccc(C)cc2)c2cccnc2)CC1 (stereo unspecified) | > 15 µM (inactive) |
| O=C(N/N=C/c1cc(Cl)ccc1O)c1cccnc1 | 1.55 µM |
| CCOC(=O)c1csc(Nc2nc3ccc(F)cc3s2)n1 | 3.21 µM |
| O=C(Nc1nnc(-c2ccc3c(c2)CCCC3)o1)c1c(F)cccc1F | 0.612 µM |
| Cc1cccc(Nc2nc(N)nc(CN3CCN(c4ccccc4F)CC3)n2)c1 | 15.4 µM |
| O=c1cc2oc3cc(O)c(O)cc3c(-c3ccccc3[N+](=O)[O-])c-2cc1O | 9.36 µM |
| CCOC(=O)c1ccc(NC(=O)c2nc[nH]c2C(=O)N[C@@H](Cc2ccccc2)C(=O)OC(C)(C)C)cc1 | 3.17 µM |
| CN(C)c1ccc(O)c2c1CC1CC3C(N(C)C)C(=O)C(C(N)=O)=C(O)[C@@]3(O)C(=O)C1=C2O (stereo partly specified) | 0.096 µM |
| COc1ccc(N=Nc2ccc(O)c3ncccc23)cc1 | < 0.06 µM |
| O=C(Nc1cccc(-c2nc3ccccc3[nH]2)c1)c1ccc(C(=O)Nc2cccc(-c3nc4ccccc4[nH]3)c2)cc1 | > 15 µM (inactive) |
| N#Cc1c(-c2c(Cl)cccc2Cl)noc1/C=C/Nc1ccc(C(=O)O)cc1 | 4.6 µM |
| CCC(C)Nc1nc(N)c([N+](=O)[O-])c(Nc2cc(OC)ccc2OC)n1 (stereo unspecified) | 1.95 µM |
| Cc1cc(NC(=O)c2sccc2C)n(-c2nc3ccccc3[nH]2)n1 | 2.81 µM |
| Cc1cc(C)c2nc(NNC(=O)c3ccc(S(=O)(=O)N4CCCC(C)C4)cc3)sc2c1 (stereo unspecified) | 0.297 µM |
| Cc1ccc(C(=O)n2c(N)nc3ccccc32)cc1 | 4.29 µM |
